# Experiments:
# [1] = Acrylamide quenching studies (aggregation in aqueous medium); assay type: physicochemical; details: acrylamide quenching of tyrosine fluorescence
# Method: The aggregation of molecules in aqueous medium, as a result of poor solubility, for example, is a critical parameter in pharmacology. […] For this purpose, acrylamide quenching studies were performed (Lakowicz J. R 1999. Principles of Fluorescence spectroscopy, Second Edition ed., Kluwer Academic/Plenum Publishers, New York; Coutinho A and Prieto M. 1993. Ribonuclease T1 and alcohol dehydrogenase fluorescence quenching by acrylamide: A laboratory experiment for undergraduate students J. Chem. Education, 70: 425-428). Acrylamide is an aqueous quencher of tyrosine fluorescence. When fluorescent peptides aggregate, the phenolic groups tend to cluster and remain inaccessible to hydrophilic molecules. Conversely, when no aggregation occurs, all tyrosine residues are exposed to the solvent and, therefore, accessible to the contact and quenching by acrilamide. […] The fluorescence spectra were not concentration-dependent (not shown) and there was a linear dependence of fluorescence intensity on concentration (not shown).
# [2] = tested on: monoarthritis rats; test: CFA-induced monoarthritis, Hargreaves and Tail Flick tests; assay type: in vivo, rat
# Source text: The subcutaneous intraplantar injection of complete Freund's adjuvant (CFA) into the local area of an animal can cause severe inflammatory pain around the injected area. This CFA-induced inflammatory pain has been widely used as a kind of pain model in the field of pain research since it was reported. Inflammatory pain was induced by an injection of complete Freund's adjuvant into the right hindpaw of the rats (S. H. Butler, F. Godefroy, J. M. Besson and J. Weilfugazza. 1992. A limited arthritic model for chronic pain studies in the rat. Pain, 48: 73-81). The paw withdrawal latency was used to assess the inflammatory pain according to the method of Hargreaves et al. (Hargreaves K, Dubner R, Brown F, Flores C, and Joris J. 1988. A new and sensitive method for measuring thermal nociception in cutaneous hyperalgesia. Pain 32: 77-88, 1988). The CFA-injected area of the right paw was placed on a constant-intensity radiant heat source and the time of paw-withdrawal latency was measured by observing the animal's paw-withdrawal response after applying initial heat to the left or right paws. Additionally, the Tail Flick test was performed in order to assess the secondary hyperalgesia.
# [3] = Plasma serum stability of analogues; assay type: in vitro ADME; details: Human Serum; test concentration 400 uM; 1-hour incubation; read-out: Mean Parent Remaining (%)
# Method: These analogues were tested for plasma serum stability, in comparison with KTP-NH2.
# [4] = tested on: rats; test: Formalin test (paw jerks); assay type: in vivo, rat; details: acute and tonic-chronic phases; i.p. 10 min before 5% formalin s.c.
# Source text: The formalin test was introduced as a model of tonic pain in 1977 (Dubuisson D., Dennis S. G. 1977. The formalin test: a quantitative study of the analgesic effect of morphine, meperidine and brain stem stimulation in rats and cats. Pain; 4:74-161). In rats, formalin generates an initial phase of activity (phase 1, acute), a quiescent interphase, and a second phase of activity (phase 2, tonic/chronic), and this is seen with spontaneous behaviors, firing of afferent neurons, and activity in dorsal horn neurons. Both active phases involve ongoing peripheral afferent neural activity; inflammation contributes to phase 2 activity and the interphase results from active inhibition. Within the spinal cord, formalin increases c-fos expression in neurons and causes activation of microglia, and these may contribute more prominently to longer term changes.
# We performed the formalin test due to its validity as a model to study central sensitization events at the spinal level after peripheral inflammatory states. The standard two types of nociception were analyzed; the short-lasting nociception caused by a direct effect on nociceptors followed by a long-lasting nociception due to inflammation. KTP-NH2 was administered i.p. 10 min previous to formalin injection. […] The paw jerks were videotaped and measured both in the acute and in the tonic-chronic phases. […]
# [5] = target: CYP3A4 (Homo sapiens, UniProt P08684); test: CYP inhibition; assay type: in vitro ADME; details: probe substrates midazolan and testosterone
# Sequence of CYP3A4 (P08684 whole entry): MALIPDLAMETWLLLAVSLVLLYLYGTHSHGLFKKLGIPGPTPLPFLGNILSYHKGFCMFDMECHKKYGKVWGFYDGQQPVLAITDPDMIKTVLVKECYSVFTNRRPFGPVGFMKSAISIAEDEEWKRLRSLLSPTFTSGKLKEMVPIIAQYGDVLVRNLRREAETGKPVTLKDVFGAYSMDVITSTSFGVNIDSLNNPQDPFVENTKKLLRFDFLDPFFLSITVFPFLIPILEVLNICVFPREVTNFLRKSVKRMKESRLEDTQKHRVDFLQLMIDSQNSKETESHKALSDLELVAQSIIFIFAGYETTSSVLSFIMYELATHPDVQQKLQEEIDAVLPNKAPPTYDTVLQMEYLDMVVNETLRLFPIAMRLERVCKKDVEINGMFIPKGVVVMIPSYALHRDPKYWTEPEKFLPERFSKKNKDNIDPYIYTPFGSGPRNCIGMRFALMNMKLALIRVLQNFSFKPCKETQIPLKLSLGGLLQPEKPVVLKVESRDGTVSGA
# Source text: CYP3A4 is one of the most important enzymes involved in the metabolism of xenobiotics in the body, promoting the oxidation of the largest range of substrates of all the CYPs and is present in the largest quantity of all the CYPs in the liver.
# [6] = Partition into lipid bilayer vesicles (fluorescence titration); assay type: physicochemical; details: mammal-mimetic lipid bilayer vesicle; numerical treatment of fluorescence titration
# Source text: We performed biophysical studies using fluorescent methodologies in order to characterize the interaction of KTP-NH2 with liposomes representing human cell membranes (Santos N. C., Prieto M. and Castanho M. A. 2003. Quantifying molecular partition into model systems of biomembranes: an emphasis on optical spectroscopic methods. Biochim Biophys Acta 1612: 123-135.). A clear interaction of KTP-NH2 with the lipid bilayers was observed. […] When titrated with a mammal-mimetic lipid bilayer vesicle (circles), the fluorescence intensity of the phenolic moiety increases due to insertion in the apolar environment created by the lipids. The POPC system mimetizes the external layer of human cell membranes, whereas POPG lipidic mixture mimetizes the internal layer of human cell membranes.
# In order to confirm that these plasma-stable KTP-NH2 derivatives maintained their lipophilicity, their potential interaction with human cell membranes was assessed. Again, we performed biophysical studies using fluorescent methodologies (Santos N. C., Prieto M. and Castanho M. A. 2003. Quantifying molecular partition into model systems of biomembranes: an emphasis on optical spectroscopic methods. Biochim Biophys Acta 1612: 123-135.).
# [7] = tested on: rats; test: Rota-rod test (motor ability); assay type: in vivo, rat; details: 3.23 mg/100 g of body mass
# Method: To evaluate the motor ability of animals after being injected with the drug (3.23 mg/100 g of body mass), the Rota-rod test was used. Briefly, the animal is placed on a wheel and run in balanced position; if balance is lost, the animal falls.
# [8] = tested on: rats (Wister, male); test: Antioxidant capacity in plasma (ACW, ACL); assay type: in vivo, rat; details: i.p. once a day 3.23 mg/100 g for seven days
# Method: The toxicological studies were carried out with rats (Wister, male) injected i.p. once a day with 3.23 mg/100 g body mass during seven days.
# Metabolization of KTP-NH2 in the organism might lead to an increase in its metabolite products and to the subsequent production of reactive oxygen species (ROS). As increased ROS levels are potentially harmful, KTP-NH2 potential to induce changes in antioxidant capacities in the plasma of animals was explored. Total antioxidant capacity of lipid-soluble (ACL) and water-soluble (ACW) constituents were determined.
# [9] = tested on: c-fos; test: Formalin-induced c-fos expression in spinal cord dorsal horn (immunohistochemistry); assay type: in vivo, rat; details: formalin-treated rats
compound,measurement,setting,value
"N=C(N)NCCC[C@H](NC(=O)[C@@H](N)Cc1ccc(O)cc1)C(N)=O [KTP-NH2, L-Tyr-L-Arg-NH2]",aggregation / solubility in aqueous medium,[1],favourable solubility properties
same,analgesic effect in chronic inflammatory pain,[2],efficacy
same,"remaining at 1 h, 400 uM",[3],14%
same,number of paw-jerks,[4],reduced significantly
same,CYP3A4 inhibition,[5],not to inhibit
same,local concentration in the model membrane of mammals relative to surrounding bulk aqueous phase,[6],approx. 2500 fold
same,"motor ability, loss of balance",[7],No loss of balance/equilibrium
same,"basal antioxidant capacity in plasma (ACL, ACW)",[8],does not induce significant modifications
same,formalin-induced c-fos protein expression in dorsal horn,[9],significantly decreased

# Reference: patent US20110082087A1, “COMPOUNDS FOR TREATING PAIN” (Edificio ICAT, priority 2008, published 2011)
